4 substances from patent US20110172182A1, “Carboxyethylated Cyclodextrin Polysulfates Useful As Medicaments” (ARCARIOS B.V., priority 2008, published 2011) can be followed below.

Data set [1] relates to healthy donor thrombocytes. Briefly: Platelet activation (CD62p, flow cytometry) by HIT patient anti-heparin/PF4 antibodies. The format is cell-based, human. The following applies: for ratio: % CD62p+ (with substance)/% CD62p+ (without) / ΔCD62p+ %: percentage increases in CD62p positive platelets: 0.3 IU heparin or 5 μg/ml polysaccharide. As for the experimental part:
The activation of healthy donor thrombocytes by HIT patient anti-heparin/PF4 antibodies in the presence of heparin and the differently sulfated forms of β-cyclodextrin was tested. […] The expression of CD62p by the activated platelets was assayed by means of flow cytometry with a FC500 analyzer (available from Beckman Coulter, Belgium). Platelet-rich plasma solution (PRP) was prepared by slow centrifugation (10 minutes at 180 g) of fresh citrate anti-coagulated blood (1:9 v/v, 0.129 mol/L or 3.8% trisodium citrate buffer), obtained from normal donors. HIT Ab positive plasma samples from patients and HIT Ab negative control plasma from healthy donors were prepared by double centrifugation (15 minutes at 2230 rpm) of fresh citrate anti-coagulated blood. 70 μl of PRP was incubated with 20 μL of HIT Ab containing plasma optionally in the presence of heparin (0.3 IU/ml) or the relevant β-cyclodextrin derivative (5 μg/ml). Experiments with each HIT Ab positive plasma sample were repeated independently using thrombocytes of 2 donors (A and B), to avoid the possibility of non-reactive platelets.
Following the initial 40 minutes incubation step, 5 μl of the platelets solution was transferred to a fresh tube with 85 μL phosphate buffered saline (PBS) containing 1% bovine serum albumin (BSA) and 0.1% Na-azide, 5 μl (0.25 μg) monoclonal anti-CD41 antibodies (Ab) (phycoerythrin-Texas Red Energy coupled dye (ECD)-conjugated, Beckman Coulter) and 5 μl (0.125 μg) of anti-CD62p Ab (phycoerythrin (PE)-conjugated, Beckman Coulter). CD41 (Glycoprotein […]) is a selective marker of platelets and platelet precursors. CD62p is a constituent of alpha granules and is released to the platelet surface on activation.
After 20 minutes of incubation at room temperature, the total volume of the platelet suspension was adjusted to 600 μL buffered solution and evaluated without delay by flow cytometry. 20,000 events per sample were analysed and the platelet populations were gated by side scatter characteristics and the platelet marker CD41. The fraction of activated platelets among the total platelet population was determined and relative CD62p ratios to the internal controls were calculated. [ratio: % CD62p^+ (0.3 IU Heparine or 5 μg/ml β-cyclodextrin derivative)/% CD62p^+ (0 IU Heparine or 0 μg/ml β-cyclodextrin derivative)]. Test results for the heparin treated platelets were evaluated by the scoring system described in Thromb. Haemost. (1999) 82:1255-1259. Control tests were scored positive when the calculated ratios of at least 2 donors were more then 2, based on previously obtained results with normal individuals. To evaluate the potential of the different β-cyclodextrin derivatives to induce platelet activation, both the percentages and ratios of CD62p^+ platelets after incubation with the respective β-cyclodextrin were statistically compared to the percentage and the ratio of CD62p^+ platelets after heparin incubation.
A general note: A flow cytometer gives signals particle by particle.

The test system of a further data set is normal pooled plasma. In words: Blood coagulation activities (aPTT, PT, fibrinogen) in normal pooled plasma. Set-up: species or system human. The following applies: after incubation with 50 or 100 μg/ml. The method, then:
MA-CDPS, HP-CDPS, CE-CDPS and CDPS (as defined in examples 3-4 and characterised in table 1) were prepared as buffered solutions at various concentrations. The polysaccharides were incubated with normal pooled plasma prepared out of 40 healthy volunteers and analyzed for their effects on activated partial thromboplastin time (aPTT), prothrombin time (PT) and fibrinogen levels on a STA Compact® coagulation analyzer (available from Diagnostica Stago, Asnieres, France) according to the manufacturers instructions.

A further data set concerns C57BI/6 male mice. In words: Collagenase-induced knee osteoarthritis in mice, histopathology. Format: in vivo. As for the experimental part:
Knee osteoarthritis was induced by injecting the right knees of adult (10 weeks) C57BI/6 male mice with 10 μl of a 2 U/μl collagenase type VII (Sigma C-9572, available from Sigma-Aldrich Belgium) solution. The left knee of these animals was injected with 10 μl PBS and served as a control. Two groups of each 8 mice were randomized on weight, the first group was injected subcutaneously once weekly, with 1 mg/kg of the CE-CDPS of example 3, the second group was treated with saline. Treatment was initiated three days after the mice received their intra-articular injection. The animals were fed a standard diet with tap water ad libitum and their weight was recorded twice a week. The mice were sacrificed three weeks after induction of knee osteoarthritis and the liver, kidneys and knee joints were fixed immediately in 2% neutral buffered paraformaldehyde (Fluka 76240, available from Sigma-Aldrich Belgium).
After fixation, knee joints were decalcified in 0.5 M EDTA in PBS and embedded in paraffin. 5μ tissue sections were cut and stained with haematoxylin and eosin for an analysis of the general morphology or with safranin-O for an assessment of proteoglycan content. Each 100 μm, 3 sections of the joint were evaluated.
Stained slides were submitted for evaluation. The following parameters were evaluated: synovial inflammation, fibrosis, osteophytes and erosion of cartilage. Synovial inflammation was graded from 0 to +3 as follows: 0 no changes from normal; +1 mild changes; +2 moderate changes; and +3 severe changes.
Fibrosis was scored as follows: 0 no changes from normal; +1 fibrosis without metaplasia; +2 fibrosis associated with chondroplasia; +3 fibrosis associated with metaplastic bone. Osteophytes were graded from 0 to +4 referring to the amount of osteophytes observed, with a maximum score of 1 per compartment.
Cartilage erosion was graded from 0 to +3 as follows: 0 no changes from normal; +1 only superficial erosion; +2 loss of proteoglycan in one compartment; and +3 loss of proteoglycan in different compartments. In this scoring system the femoral/tibial junction as a whole was taken in consideration by 2 independent investigators.

Setting [2] is: HIT ab plasma pat1, platelet donor dA.
Where [3] appears, read: HIT ab plasma pat1, platelet donor dB.
The mark [4] stands for this setting: HIT ab plasma pat2, platelet donor dA.
The mark [5] stands for this setting: HIT ab plasma pat2, platelet donor dB.
The mark [6] stands for this setting: HIT ab plasma pat3, platelet donor dA.
Setting [7] is: HIT ab plasma pat3, platelet donor dB.
Where [8] appears, read: HIT ab plasma pat4, platelet donor dA.
Setting [9] is: HIT ab plasma pat4, platelet donor dB.
The mark [10] stands for this setting: in the presence of plasma samples of individuals that had developed HIT Ab.
[11] abbreviates: 1 mg/kg subcutaneously once weekly, OA knees.

For “Sulfated 6-monoamino-6-monodeoxy β-cyclodextrin [MA-CDPS]”, the “ratio: % CD62p+ (with substance)/% CD62p+ (without)” value (shortened to “ratio: % CD62p+ … (without)”) in data set [1] (setting [2]) is 5.2; in data set [1] (setting [3]) it was 5.5; in data set [1] (setting [4]), 1.4; in data set [1] (setting [5]) it was 3.5; in data set [1] (setting [6]) it was 1.9; in data set [1] (setting [7]), 8.2. Besides, the “ratio: % CD62p+ … (without)” value in data set [1] (setting [8]) was 3.5; in data set [1] (setting [9]), 3.1. Besides, the “ΔCD62p+ %: percentage increases in CD62p positive platelets” value (“ΔCD62p+ %: percentage increases” below) in data set [1] (setting [2]) was determined as 74.8%; in data set [1] (setting [3]), 69.9%; in data set [1] (setting [4]) it was 9.6%; in data set [1] (setting [5]), 17.4%; in data set [1] (setting [6]) it was 16.7%; in data set [1] (setting [7]) it was 32.6%. Further, the “ΔCD62p+ %: percentage increases” value in data set [1] (setting [8]) came out at 51.1%; in data set [1] (setting [9]) it was 63.6%. For the same substance, the platelet activation entry in data set [1] (setting [10]) was “induced platelet activation”. The fibrinogen concentrations result in the data set with normal pooled plasma is reported as “Minor decreases”.

For “Sulfated (2-carboxyethyl)-β-cyclodextrin [CE-CDPS]”, the “ratio: % CD62p+ … (without)” value in data set [1] (setting [2]) amounted to 1.8; in data set [1] (setting [3]), 2.2; in data set [1] (setting [4]), 1.1; in data set [1] (setting [5]) it was 1.2; in data set [1] (setting [6]) it was 1.4; in data set [1] (setting [7]), 2.7. Also, the entries for the “ratio: % CD62p+ … (without)” value in data set [1] (setting [8]) and in data set [1] (setting [9]) were 2.2 and 2.4, respectively. Further, the “ΔCD62p+ %: percentage increases” value in data set [1] (setting [2]) is on record as 13.9%; in data set [1] (setting [3]) it was 14.4%; in data set [1] (setting [4]), 2.4%; in data set [1] (setting [5]), 1.1%; in data set [1] (setting [6]) it was 7.9%; in data set [1] (setting [7]) it was 10.2%. Moreover, the figures for the “ΔCD62p+ %: percentage increases” value in data set [1] (setting [8]) and in data set [1] (setting [9]) were 22.9% and 45.0%, respectively. For the same substance, the platelet activation result in data set [1] (setting [10]) is “do not significantly activate platelets”. Also, the “cross-reactivity with the heparin/PF4 antibodies” value in data set [1] (paired analysis versus heparin, ratios and percentages of CD62p positive cells) was “no cross-reactivity”. The fibrinogen concentrations result in the data set with normal pooled plasma is listed as “Minor decreases”. Besides, the osteophyte growth result in the data set on C57BI/6 male mice (setting [11]) is on record as “not inhibited”. Also, the pannus formation result in the data set with C57BI/6 male mice (setting [11]) is recorded as “not inhibited”. Also, in the data set on C57BI/6 male mice (setting [11]), the synovial inflammation result is “not inhibited”. Also, the “weight of the animals” value with C57BI/6 male mice (1 mg/kg subcutaneously once weekly, three weeks) is “did not affect”. The “overall cartilage damage (Safranine O staining)” value with C57BI/6 male mice (1 mg/kg subcutaneously once weekly, versus PBS-treated) was “reduced”. Further, the “cartilage proteoglycan depletion in osteoarthritis knee joints” value in the data set with C57BI/6 male mice (collagenase-induced knee-osteoarthritis in mice) is “prevented”.

Take “Sulfated (2-hydroxypropyl)-β-cyclodextrin [HP-CDPS]”: the “ratio: % CD62p+ … (without)” value in data set [1] (setting [2]) is given as 4.9; in data set [1] (setting [3]), 5.1; in data set [1] (setting [4]) it was 1.0; in data set [1] (setting [5]), 1.1; in data set [1] (setting [6]), 2.1; in data set [1] (setting [7]), 4.7. Besides, the “ratio: % CD62p+ … (without)” value in data set [1] (setting [8]) is 4.6; in data set [1] (setting [9]), 2.8. The “ΔCD62p+ %: percentage increases” value in data set [1] (setting [2]) amounted to 67.6%; in data set [1] (setting [3]), 53.0%; in data set [1] (setting [4]) it was 0.1%; in data set [1] (setting [5]), 1.2%; in data set [1] (setting [6]), 23.3%; in data set [1] (setting [7]), 17.1%. Further, the “ΔCD62p+ %: percentage increases” value in data set [1] (setting [8]) is on record as 63.2%; in data set [1] (setting [9]), 60.7%. The platelet activation entry in data set [1] (setting [10]) is on record as “induced platelet activation”. Besides, the fibrinogen concentrations entry in the data set with normal pooled plasma was “Minor decreases”.

Regarding heparin, the “ratio: % CD62p+ … (without)” value in data set [1] (setting [2]) came to 4.2; in data set [1] (setting [3]) it was 2.2; in data set [1] (setting [4]), 2.8; in data set [1] (setting [5]) it was 3.9; in data set [1] (setting [6]) it was 4.3; in data set [1] (setting [7]), 8.2. The “ratio: % CD62p+ … (without)” value is reported as 2.7 in data set [1] (setting [8]) and 2.8 in data set [1] (setting [9]). Besides, the “ΔCD62p+ %: percentage increases” value is listed as 45.5% in data set [1] (setting [2]); 14.3% in data set [1] (setting [3]); 45.6% in data set [1] (setting [4]); 15.1% in data set [1] (setting [5]); 60.3% in data set [1] (setting [6]); 42.3% in data set [1] (setting [7]). Moreover, the “ΔCD62p+ %: percentage increases” value in data set [1] (setting [8]) is 34.8%; in data set [1] (setting [9]), 56.4%. Also, in data set [1] (all HIT Ab positive plasma samples, the two donors), the “platelet heparin activation ratios % CD62p+ (0.3 IU heparin)/% CD62p+ (0 IU heparin)” value is listed as “above 2”. Also, the platelet activation entry in data set [1] (in the absence of patient's HIT Ab) is “not activated”.
